Tests used:
stress ulcer = assay: Inhibition on stress ulcer; assay type: in vivo, Sprague-Dawley rats; details: stress ulcer (immobilization, water bath 22° C., seven hours), rat, oral; for Inhibition %: 32 mg/kg, ulcer area vs control
Protocol: (B) Inhibition on stress ulcer
Five Sprague-Dawley rats weighing about 200 g were used per group. Each animal was immobilized in a small cage and put in a water bath allowing to respire. The temperature of the water bath kept at 22° C. The test compound was administered orally just before the immobilization. Seven hours later, the animals were sacrificed and their stomachs were removed. The stomach was then fixed with 2% formalin. The area of ulcers was measured for each animal. The mean area (mm^2) in the medicated animals was compared with that in the control animals.

ethanol ulcer = assay: Inhibition on ethanol ulcer; assay type: in vivo, male Spraque-Dawley rats; details: rat, oral, 30 minutes before absolute ethanol; for Inhibition %: 32 mg/kg, ulcer area vs control
Protocol: (A) Inhibition on ethanol ulcer
Five male Spraque-Dawley rats, aged 7 weeks and weighing about 200 g, were used per group for the study on ethanol ulcer after the fast for 24 hours.
Test compound was suspended in 0.1% methylcellulose aqueous solution, and the suspension (5 ml/kg) was orally given to each rat.
The control group was given a vehicle, i.e. 0.1% methylcellulose aqueous solution (5 ml/kg), alone in the same way.
Absolute ethanol (5 ml/kg) was orally administered 30 minutes after dosing with test compound, and one hour later, the rats were sacrificed and their stomachs were removed. The area of ulcers of each rat was measured. The mean area […] in the medicated group was compared with that in the control group.

SMILES	ED50 (stress ulcer; 7 h) [mg/kg]	Inhibition % (stress ulcer) [%]	Inhibition % (ethanol ulcer) [%]	ED50 (ethanol ulcer) [mg/kg]
C#CCOCc1c(C)nc2c(OCc3ccccc3C)cccn12 [Test Compound (1), 8-(2-Methylbenzyloxy)-3-(2-propynyloxymethyl)-2-methylimidazo[1,2-a]pyridine]	0.15	100	94.4	1.1
C#CCOCc1c(C)nc2c(OCc3ccccc3Cl)cccn12 [Test Compound (2), 8-(2-Chlorobenzyloxy)-3-(2-propynyloxymethyl)-2-methylimidazo[1,2-a]pyridine]		100	98.2	
C#CCc1c(C)nc2c(OCc3ccccc3C)cccn12 [Test Compound (3), 8-(2-Methylbenzyloxy)-3-(2-propynyl)-2-methylimidazo[1,2-a]pyridine]		100	91.8	
